Assay results from ChEMBL document CHEMBL2417452, “Psammaplysin F: a unique inhibitor of bacterial chromosomal partitioning” (Bioorg Med Chem Lett, 2013).

What was measured:
Staphylococcus aureus [1] = assay: Disruption of plasma membrane integrity in Staphylococcus aureus 1H assessed as extracellular ATP release at 20 uM after 15 to 120 mins by BacTiter-Glo microbial assay relative to control; type: functional
Enterococcus faecalis [2] = assay: Antibacterial activity against Enterococcus faecalis NCTC 775 after 20 to 24 hrs by two-fold broth microdilution method; type: functional, organism-based
Escherichia coli = assay: Antibacterial activity against Escherichia coli assessed as growth inhibition at 50 uM after 5 hrs by BacTiter-Glo microbial assay relative to control; type: functional
Salmonella typhimurium = assay: Antibacterial activity against Salmonella typhimurium assessed as growth inhibition at 50 uM after 5 hrs by BacTiter-Glo microbial assay relative to control; type: functional; details: Salmonella enterica subsp. enterica serovar Typhimurium
Bacillus cereus [3] = assay: Antibacterial activity against Bacillus cereus NCTC 7464 assessed as growth inhibition at 50 uM after 5 hrs by BacTiter-Glo microbial assay relative to control; type: functional
Pseudomonas aeruginosa = assay: Antibacterial activity against Pseudomonas aeruginosa PAO1 assessed as growth inhibition at 50 uM after 5 hrs by BacTiter-Glo microbial assay relative to control; type: functional
Klebsiella pneumoniae = assay: Antibacterial activity against Klebsiella pneumoniae NCIB 8805 assessed as growth inhibition at 50 uM after 5 hrs by BacTiter-Glo microbial assay relative to control; type: functional
Bacillus cereus [4] = assay: Antibacterial activity against Bacillus cereus NCTC 7464 after 20 to 24 hrs by two-fold broth microdilution method; type: functional, organism-based
Staphylococcus aureus [5] = assay: Antibacterial activity against penicillin-resistant Staphylococcus aureus 1H assessed as growth inhibition at 50 uM after 5 hrs by BacTiter-Glo microbial assay relative to control; type: functional
Staphylococcus aureus [6] = assay: Antibacterial activity against methicillin-resistant Staphylococcus aureus USA-300 after 20 to 24 hrs by two-fold broth microdilution method; type: functional, organism-based
Staphylococcus aureus [7] = assay: Antibacterial activity against methicillin-resistant Staphylococcus aureus MW2 after 20 to 24 hrs by two-fold broth microdilution method; type: functional, organism-based
Staphylococcus aureus [8] = assay: Antibacterial activity against Staphylococcus aureus 1H after 20 to 24 hrs by two-fold broth microdilution method; type: functional, organism-based
Staphylococcus aureus [9] = assay: Antibacterial activity against Staphylococcus aureus NCTC 6571 after 20 to 24 hrs by two-fold broth microdilution method; type: functional, organism-based
Staphylococcus aureus [10] = assay: Antibacterial activity against methicillin-resistant Staphylococcus aureus USA-300 assessed as growth inhibition at 50 uM after 5 hrs by BacTiter-Glo microbial assay relative to control; type: functional
Staphylococcus aureus [11] = assay: Antibacterial activity against methicillin-resistant Staphylococcus aureus MW2 assessed as growth inhibition at 50 uM after 5 hrs by BacTiter-Glo microbial assay relative to control; type: functional
Staphylococcus aureus [12] = assay: Antibacterial activity against Staphylococcus aureus NCTC 6571 assessed as growth inhibition at 50 uM after 5 hrs by BacTiter-Glo microbial assay relative to control; type: functional
Enterococcus faecalis [13] = assay: Antibacterial activity against Enterococcus faecalis NCTC 775 assessed as growth inhibition at 50 uM after 5 hrs by BacTiter-Glo microbial assay relative to control; type: functional

Molecule	fold change (FC) (Staphylococcus aureus [1])	MIC (Enterococcus faecalis [2])	growth inhibition (GI) (Escherichia coli)	growth inhibition (GI) (Salmonella typhimurium)	growth inhibition (GI) (Bacillus cereus [3])	growth inhibition (GI) (Pseudomonas aeruginosa)	growth inhibition (GI) (Klebsiella pneumoniae)	MIC (Bacillus cereus [4])	growth inhibition (GI) (Staphylococcus aureus [5])	MIC (Staphylococcus aureus [6])	MIC (Staphylococcus aureus [7])	MIC (Staphylococcus aureus [8])	MIC (Staphylococcus aureus [9])	growth inhibition (GI) (Staphylococcus aureus [10])	growth inhibition (GI) (Staphylococcus aureus [11])	growth inhibition (GI) (Staphylococcus aureus [12])	growth inhibition (GI) (Enterococcus faecalis [13])
COC1=C(Br)C[C@]2(OC=C1Br)ON=C(C(=O)NCCCOc1c(Br)cc(CC[N+](C)(C)C)cc1Br)[C@@H]2O.O=C([O-])C(F)(F)F	2																
GENTAMICIN		25 µM	87%	82%	82%	86%	83%	1.6 µM	89%	3.1 µM	1.6 µM	1.6 µM	0.8 µM	90%	93%	95%	77%
